≈ marks a conversion by molar mass, not a printed value. Entries after “also recorded” stand apart in the source; their conditions may differ. Read-outs that look alike come from different tables or passages of the source.
Tests used:
[1] = tested on: multidrug resistant P. falciparum strains; conditions: cited from earlier work
ATV resistant parasites = conditions: cited from earlier work
[2] = cited by Chatterjee, CALIBR model system; cited from earlier work
[3] = mouse microsomes; cited from earlier work
P. falciparum cyt bc1 = P. falciparum cyt bc1 (Plasmodium falciparum, UniProt Q02768); conditions: cited from earlier work
Sequence of P. falciparum cyt bc1 (Q02768 whole entry): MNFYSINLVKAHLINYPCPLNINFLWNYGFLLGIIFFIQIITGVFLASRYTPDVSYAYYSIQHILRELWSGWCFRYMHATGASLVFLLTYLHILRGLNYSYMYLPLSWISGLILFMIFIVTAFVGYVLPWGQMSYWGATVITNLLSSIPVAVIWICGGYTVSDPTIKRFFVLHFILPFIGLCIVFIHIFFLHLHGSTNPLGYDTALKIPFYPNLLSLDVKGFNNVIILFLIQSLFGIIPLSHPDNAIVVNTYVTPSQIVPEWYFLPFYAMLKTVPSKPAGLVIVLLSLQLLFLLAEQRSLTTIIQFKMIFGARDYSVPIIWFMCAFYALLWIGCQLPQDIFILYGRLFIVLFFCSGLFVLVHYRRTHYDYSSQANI

[4] = rat microsomes; cited from earlier work
[5] = human microsomes; cited from earlier work
malaria-infected mice = conditions: cited from earlier work
[6] = Pharmacokinetics of intramuscular (im) injections of ELQ-300 prodrugs in sesame oil in mice; type: in vivo; conditions: at every time point after im injection, Trial 2
Procedure: We dissolved ELQ-331 in sesame oil and administered (30 mg/kg) in a single […] injection into the caudal thigh of mice in two separate trials. Trial 1 served as a pilot study to monitor ELQ-300 blood levels for months following a single im injection. In Trial 2 we adjusted the LC-MS/MS chromatographic protocol to capture prodrug [ELQ-331] as well as [ELQ-300] with early time-points to cover the critical burst phase, a phenomenon known as “dose dumping”. […] In Trial 2, we monitored plasma [ELQ-331] and [ELQ-300] starting 6 hours after im injection. To avoid excessive blood draws, 6 different groups of 4 mice, all treated at the same time, were used in a rotating succession, one group for each time point. FIG. 1 depicts Plasma [ELQ-300], nM, following im injection in mice of 30 mg/kg ELQ-331 (prodrug) in sesame oil. […] At all time-points the [ELQ-300] concentration exceeds the Minimum Fully Effective Concentration (MEC100) of ≈60 nM. All data points are the average values±SEM.
Also shown in FIG. 5 is a composite plot of plasma [ELQ-300] from both trials with remarkable consistency in the results. ELQ-331 outperformed the CALIBR ELQ-300 prodrug (mCAR246) profiled at the 2017 ASTMH meeting by a significant margin, i.e., Day 28 bloodstream [ELQ-300] levels for mCAR246=181±59 (30 mg/kg, unknown formulation) vs. 446±22 nM (avg.±SEM) for prodrug ELQ-331 in (30 mg/kg, sesame oil).

[7] = Estimation of compound solubility in sesame oil; type: physicochemical; conditions: room temperature, remained in solution for at least 72 hrs; for solubility: sesame oil, oil or lipid, thermodynamic from solid
Procedure: Generalized method for estimation of compound solubility in sesame oil: Sesame oil (10 μl) was dispensed into a glass vial containing 10 mg of the appropriate ELQ-300 prodrug. The mixture was vortexed and warmed (using a heat gun) to aid dissolution. The solubility of the compound was judged after the sesame oil mixture cooled to room temperature. If the compound was not completely dissolved, additional sesame oil was added in low-volume increments. Importantly, complete dissolution was assured by confirming by visual inspection that the compound remained in solution for at least 72 hrs at room temperature.

[8] = tested on: patent malaria infections in mice; conditions: oral drug delivery, single dose; cited from earlier work
[9] = tested on: P. yoelii luciferase expressing parasites (PyXNL non-lethal strain, luc+); assay: Protection against P. yoelii sporozoite-induced infection in mice (bioluminescence imaging); type: in vivo, Plasmodium yoelii
Procedure: Animals receiving an im injection of 30 mg/kg ELQ-331 in sesame oil were challenged by inoculation with 10,000 P. yoelii luciferase expressing parasites (PyXNL non-lethal strain, luc^+) at two different time points, 48 days and 137 days post im injection (Note that separate groups of mice were used for these two challenges). For details of our experimental methods please refer to the work proposed section as well as published papers by Qigui Li (17) and Kami Kim (18). Sporozoites were obtained by dissection of infected mosquitoes, A. stephensi, and purification over glass wool with assistance from Dr. Brandon Wilder (formerly Sack), who recently joined the OHSU faculty (see letter of collaboration). Non-invasive whole animal
Bioluminescence imaging (BLI) was used to evaluate all study animals for the presence of liver stage infection using an IVIS Spectrum imager. Briefly, on the day of analysis mice received a single ip injection with a luciferin solution roughly 10 minutes before imaging. Each animal was placed on the IVIS platform with gaseous isoflurane serving as anesthetic. […] Of interest, we also challenged animals that had received an im injection (dissolved in sesame oil) of two similar ELQ-300 prodrugs, PSPS-173 and PSP6-16F.
Bioluminescent imaging (FIG. 2) was used to analyze the protective effect of im ELQ-300 prodrugs on Plasmodium yoelii liver stages. Mice were infected by inoculation with 10,000 Plasmodium yoelii GFP/luciferase expressing parasites (PyXNL non-lethal strain, luc*). As described in the narrative infected mice received sporozoite injections 48 days and 137 days following im injection with selected ELQ-300 prodrugs dissolved in sesame oil. After sporozoite challenge, mice underwent imaging for detection of bioluminescent signal after 24 and 48 hours and then again on Day 6 post-inoculation. Control mice show bioluminescent signal in the region above the liver of anesthetized mice after 24 hours which becomes more intense by 48 hours after which parasites emerge into the bloodstream as evidenced by widespread signal intensity across the entire animal by 6-days post inoculation.

[10] = challenge 137 days (4½ months) after single im injection in sesame oil

In the case of `COc1cc2[nH]c(C)c(-c3ccc(Oc4ccc(OC(F)(F)F)cc4)cc3)c(=O)c2cc1Cl` [ELQ-300, 6-Chloro-7-methoxy-2-methyl-3-[4-[4-(trifluoromethoxy)phenoxy]phenyl]-4(1H)-quinolinone], the “IC50's vs. multidrug resistant P. falciparum strains” value [1] is given as “low nanomolar”, the “potency vs. ATV resistant parasites” value (ATV resistant parasites) is given as “equal potency” and the “minimum effective concentration (plasma ELQ-300)” value [2] is given as 83 nM. For the same compound, the metabolic stability [3] was “metabolically stable”, the “selectivity for the parasite over the host cyt bc1” value (P. falciparum cyt bc1) was 10,000 fold and the metabolic stability [4] was “metabolically stable”. The metabolic stability [5] was “metabolically stable”, the ED50 (malaria-infected mice; 4-day Peters Test) was 0.02 mg/kg and the curative dose (malaria-infected mice; 4-day Peters Test) was 0.3 to 1 mg/kg. For the same compound, the “fold more effective than ATV in vivo in treatment of malaria-infected mice” value (malaria-infected mice; relative to ATV) was 30 fold.
In the case of `CCOC(=O)OCOc1c(-c2ccc(Oc3ccc(OC(F)(F)F)cc3)cc2)c(C)nc2cc(OC)c(Cl)cc12` [ELQ-331, ((6-chloro-7-methoxy-2-methyl-3-(4-(4-(trifluoromethoxy)phenoxy)phenyl)quinolin-4-yl)oxy) methyl ethyl carbonate], the “ratio of ELQ-300/ELQ-331 in plasma” value [6] is listed as “very large”, the solubility [7] is listed as 125 mg/mL (≈ 216 mM) and the “cure of patent malaria infections in mice” value [8] is listed as “single dose cures”. The “protection against sporozoite challenge” value ([9]; challenge 48 days after single im injection in sesame oil) was “fully protected”, the “protection against sporozoite challenge” value [9, 10] was “complete protection; also recorded: fully protected” and the “duration of protection in mice with a single im injection” value ([9]; single im injection) was “more than 4 months”. For the same compound, the “bioluminescent signal (liver stage infection)” value ([9]; sporozoite challenge 48 days after 30 mg/kg im injection (Trial 2)) was “no detectable bioluminescent signal” and the “bioluminescent signal (liver stage infection)” value ([9]; sporozoite challenge 137 days after 30 mg/kg im injection (Trial 1)) was “no detectable bioluminescent signal”.
With `COC(=O)OCOc1c(-c2ccc(Oc3ccc(OC(F)(F)F)cc3)cc2)c(C)nc2cc(OC)c(Cl)cc12` [ELQ-487] the “Sesame Oil Solubility” value [7] was 91 mg/mL.
In the case of `CCCOC(=O)OCOc1c(-c2ccc(Oc3ccc(OC(F)(F)F)cc3)cc2)c(C)nc2cc(OC)c(Cl)cc12` [ELQ-488], the “Sesame Oil Solubility” value [7] is reported as 83 mg/mL.
For `CCCCOC(=O)OCOc1c(-c2ccc(Oc3ccc(OC(F)(F)F)cc3)cc2)c(C)nc2cc(OC)c(Cl)cc12` [ELQ-489], the “Sesame Oil Solubility” value [7] was 71 mg/mL.
`CCCCCOC(=O)OCOc1c(-c2ccc(Oc3ccc(OC(F)(F)F)cc3)cc2)c(C)nc2cc(OC)c(Cl)cc12` [ELQ-490, ((6-chloro-7-methoxy-2-methyl-3-(4-(4-(trifluoromethoxy)phenoxy)phenyl)quinolin-4-yl)oxy)methyl pentyl carbonate] gave a melting point of 109 °C and a solubility [7] of 83 mg/mL (≈ 134 mM).
Work on `CCCCCCOC(=O)OCOc1c(-c2ccc(Oc3ccc(OC(F)(F)F)cc3)cc2)c(C)nc2cc(OC)c(Cl)cc12` [ELQ-491, ((6-chloro-7-methoxy-2-methyl-3-(4-(4-(trifluoromethoxy)phenoxy)phenyl)quinolin-4-yl)oxy)methyl hexyl carbonate] yielded a melting point of 79 °C and a solubility [7] of 100 mg/mL (≈ 158 mM).
With `CCCCCCCOC(=O)OCOc1c(-c2ccc(Oc3ccc(OC(F)(F)F)cc3)cc2)c(C)nc2cc(OC)c(Cl)cc12` [ELQ-492, ((6-chloro-7-methoxy-2-methyl-3-(4-(4-(trifluoromethoxy)phenoxy)phenyl)quinolin-4-yl)oxy)methyl heptyl carbonate] the solubility [7] was 71 mg/mL (≈ 110 mM).
Work on `CCCCCCCCOC(=O)OCOc1c(-c2ccc(Oc3ccc(OC(F)(F)F)cc3)cc2)c(C)nc2cc(OC)c(Cl)cc12` [ELQ-493, ((6-chloro-7-methoxy-2-methyl-3-(4-(4-(trifluoromethoxy)phenoxy)phenyl)quinolin-4-yl)oxy)methyl octyl carbonate] yielded a melting point of 54 °C and a solubility [7] of 100 mg/mL (≈ 151 mM).
In the case of `CCCCCCCCCOC(=O)OCOc1c(-c2ccc(Oc3ccc(OC(F)(F)F)cc3)cc2)c(C)nc2cc(OC)c(Cl)cc12` [ELQ-494], the “Sesame Oil Solubility” value [7] is reported as 333 mg/mL.
With `CCCCCCCCCCOC(=O)OCOc1c(-c2ccc(Oc3ccc(OC(F)(F)F)cc3)cc2)c(C)nc2cc(OC)c(Cl)cc12` [ELQ-495, ((6-chloro-7-methoxy-2-methyl-3-(4-(4-(trifluoromethoxy)phenoxy)phenyl)quinolin-4-yl)oxy)methyl decyl carbonate] the melting point was 55 °C and the solubility [7] was at least 500 mg/mL.
With `CCCCCCCOC(=O)OCOc1c(-c2ccc(Oc3ccc(OC(F)(F)F)cc3)cc2)c(C)nc2cc(OC)c(Cl)cc12` [PSP5-173] the “protection against sporozoite challenge” value [9, 10] was “partially protected” and the “mice that developed blood stage infection” value ([9]; challenge 137 days after im injection) was “One of three”.
